Values of other authors, collected in US20250144118A1, “MIFEPRISTONE ORAL FORM FOR ITS USE IN CERVIX RIPENING AND LABOUR INDUCTION” (NORDIC GROUP B.V., priority 2020, published 2025).

Key:
[1] = tested on: cervix of pregnant women beyond 41 weeks' gestation; conditions: 200 mg mifepristone orally, findings not statistically significant
[2] = tested on: cervix of women in full-term pregnancy; conditions: clinical trial
[3] = tested on: cervix of women in term pregnancies; conditions: 50, 100, 200, 400 and 600 mg of mifepristone; regardless of the dose

CC#C[C@]1(O)CC[C@H]2[C@@H]3CCC4=CC(=O)CCC4=C3[C@@H](c3ccc(N(C)C)cc3)C[C@@]21C [mifepristone, Mifepristone]
Bishop score after 24 hours vs. placebo [1]: improve the Bishop score after 24 hours vs. placebo | use of prostaglandin ([1]; vs. placebo): reduce the use of prostaglandin | induction of cervical ripening and labour [2]: efficient on inducing cervical ripening and labour | efficiency vs placebo [3]: no more effective than placebo
